Test results from patent publication US7348363B2, “Method of controlling zoological and aquatic plant growth” (priority 2000, dated 2008).

Experiments:
Oyster larvae = Oyster larvae toxicity; format: in vivo
Experimental: (§1) The effectiveness and toxicity levels of the compounds were evaluated using active plant and animal species. The various compounds were added to the water at controlled rates and amounts.
(§2) At 20° C., larvae remain in the free-swimming state for 30-40 days prior to settlement. Bioassays using early larval stages of this species are variants on standard oyster embryo bioassays. Assays are conducted at the embryo, trochophore and D-hinge stage.

Fish eggs = format: in vivo
E. affinis = test: Copepod assay (Eurytemora affinis); format: in vivo
Experimental: Cultures of Eurytemora affinis were continuously maintained in 15 seawater in a 8/16 hours light/dark regime fed every 48 hours on Isochrysis galbana. Toxicity bioassays are conducted on early instar naupliar larvae (chronic mortality/fecundity assay) or adults (acute LC50 assay).
Larvae were collected as follows. Cultures were filtered with a 200 m Nitex filter to separate the adults from earlier stages. Adults were then allowed to spawn for 48-72 hours in order to produce stage 1-3 naupliar larvae to be used for the assay. Assays were conducted on batches of 10 larvae per treatment (in triplicate). At 20° C., assays were continued for 12 days (shorter at higher temperatures). Endpoints were the percentage of F0 generation (present as adults) and total numbers of F1 generation (present as eggs or naupliar larvae). LC50 assays on adult copepods were conducted for 24 or 48 hours with percentage mortality as the end-point. All assays were conducted at 15 salinity on a 8 hour/16 hour light/dark regime.

Artemia salina = Artemia salina toxicity; format: in vivo
Experimental: as §1

T. isochrysis galbana = test: Phytoplankton assay, Isochrysis galbana; format: cell-based
Experimental: The dinoflagellate prorocentrum minimum was cultured at the Chesapeake Biological Laboratory culture facility from in-house stocks grown up as a 1 liter culture in sterilized 16 ppt salinity filtered water fortified with f/2 nutrient media. The culture was diluted to 5 liters with filtered estuarine water 16 ppt salinity prior to the experiments. The approximate starting cell density was 2×10^6 cells per ml.
(§3) Each 600 ml glass beaker containing 400 ml dinoflagellate culture was allowed to grow under continuous fluorescent light following the exposure treatments. At daily intervals, samples were taken for cell counting and microscopical examination, extraction of chlorophyll pigments with acetone and for direct in-vivo chlorophyll fluorescence determination.
100 ml of each dinoflagellate culture treatment in triplicate were filtered through a 25 mm GFF filter under gentle vacuum. The filters were folded and placed in polypropylene centrifuge tubes and exactly 4 ml of HPLC grade acetone added. The samples were sonicated with a probe (Virsonic 50) for approximately 2 minutes to disrupt cells after which they are allowed to extract at 4° C. overnight in a refrigerator. After centrifuging for 5 minutes, the supernatant was transferred to a quartz fluorometer cell and the fluorescence recorded using a Hitachi F4500 scanning fluorescence detector. Excitation was fixed at 436 nm with a 10 nm slit and the emission is recorded at 660 nm with a 10 nm slit. The photomultiplier is operated at 700 V. Authentic chlorophyll a and b (Sigman Chemicals) were dissolved in HPLC grade acetone to calibrate the spectrofluorometer. Three point calibrations were performed in triplicate on a daily basis and relative fluorescence response converted into units of ug/l.
In-vivo fluorimetry with the Hitachi F4500 involves suspending the algal cells and transferring an aliquot to a disposable polycarbonate cuvette and recording the emission spectra from 600-720 nm with excitation fixed at 436 nm with a 10 nm slit width.
Direct cell counts were made with a compound binocular microscope and a hemacytometer counting triplicate samples in 80 squares.
(§4) End-points for quinone toxicity include cell motility, inhibition of cell division, inhibition of chlorophyll synthesis and chloroplate bleaching.
(§5) Assays for other species of phytoplankton including Chlorella sp. and Isochrysis galbana followed the above outlined procedures.

Zebra mussel larvae = Zebra mussel larvae bioassay; format: in vivo, Dreissena polymorpha
Experimental: Zebra mussel broodstock were maintained in natural well water with calcium and magnesium adjusted to a hardness level equivalent to approximately 25 mg/l hardness.
as §2
The assays examined the toxicity of various quinones to the earliest life history stages, namely embryo to trochophore stage (2-17 hours); trochophore stage (2-17 hours); trochophore to D-hinge stage (17-48 hours); and embryo to D-hinge stage (2-48 hours).
Approximately 25 adults from broodstock (held at 10-12° C.) were cleaned of debris and transferred to 1500 ml glass beakers containing approximately 800 ml of culture water. Water temperature was rapidly raised to 30-32° C. by the addition of warm water. Mussels treated this way usually spawn within 30 minutes. If no spawning occurred within this time, a slurry made from ripe gonads homogenized in culture water is added.
A successful spawn yielded >50,000 eggs/female. To check for successful fertilization, zygotes were transferred to a Sedgewick-Rafter cell for counting and examination under a binocular microscope. Fertilized eggs were seen to be actively dividing and reached the 8-cell stage between 2-3 hours following fertilization. A better than 70% fertilization rate is considered indicative of viable experimental material.
Assays were conducted on at least 500 embryos/larvae in each of 4 replicates. A range of 5 test concentrations (in the ppm range) plus controls were used. A density of 10 embryos per ml were used for embryo assays, and for D-hinge larvae 2-larvae/ml were used. The tests were static non-renewal. Any assay lasting 24 hours or longer received food (cultured Neochloris @5×10^4 cells ml-1) at 24 hour intervals.
Following counting and adjustment of densities, embryo assays were started as early as 2 hours following fertilization by inoculating a known number of embryos into the test media. Late stages were held in culture water until inoculation. Survivors were counted using Sedgewick-Rafter cells, with adjustments for control mortality using Abbott's formula. Probit and Dunnett's test are used to obtain the LD50, Lowest Observed Effect Concentration (LOEC) and No Observed Effect Concentration (NOEC) (Toxcalc 5.0).

Neochloris = test: Phytoplankton toxicity, Neochloris; format: cell-based
Experimental: as §3, §4, §5

[1] = tested on: Banana snails (Bulimulis alternata); test: Banana snail bioassay on treated lettuce leaves; format: in vivo; conditions: for Avoidance of treated leaves: lettuce leaves sprayed with 5, 10 and 20 mg/l aqueous solution
Experimental: Banana snails (Bulimulis alternata) were obtained from a commercial supplier and were fed lettuce leaves until the start of the bioassay.
Ten snails were placed in covered 1 liter glass beakers, on approximately 50 cm^2 lettuce leaves which had been sprayed with a fine mist of an aqueous solution of 2,3-dimethoxy-5-methyl-1,4-benzoquinone at three concentrations: 5, 10 and 20 mg/l. The treated leaves were allowed to dry before exposure to the snails. 10 snails were placed on approximately 50 cm^2 of untreated lettuce leaf as a control. Treatments and controls were maintained at approximately 20° C. in the dark.
Others climbed up the walls of the beakers away from the leaves. […] In contrast, the control group of snails consumed more than 10% of the leaf surface area after 24 hours and continued to feed and had consumed about 20% of the leaf after 48 hours.

Minnow larvae = test: Fathead minnow acute assay (fish assay); format: in vivo, Pimephales promelas
Experimental: Fathead minnows (Pimephales promelas) from in-house laboratory cultures were used for these tests. Animals were cultured in natural well water with hardness adjusted to >50 ppm (CaCO3) equivalents. Fish were spawned in a 20 gal spawning tank containing PVC tubing as refuges. Newly hatched larvae were transferred to a holding tank at densities of 50-100/l until use. Brine shrimp nauplii (Artemia) were used as food.
The tests were static renewal. The test durations were 48 hours and 96 hours. The temperature was 20° C.±1° C. Light quality was ambient laboratory illumination. Light intensity was 10-20 E/m^2/sec (50-100 ft-c). The photoperiod was 16 hours of light and 8 hours of dark. The test container was 400 ml. Renewal of test solutions occurred at 48 hours. The age of test organisms was 1-14 days, with a 24 hour age range. There were 10 organisms per container. There were 3 replicates per concentration of individual quinones in the ppm range. There are 5 test concentrations plus controls (initial range-finding tests performed on logarithmic series). All tests were conducted within 5 hours of dissolving the test compound. Animals were fed Artemia nauplii prior to the test and 2 hours prior to the 48 hour test solution renewal. […]
The test objectives are to determine LC50, LOEC and NOEC. […] Data are analyzed using Toxcalc 5.0.

| Compound | Toxicity Data: time to toxic effect at 5 ppm (E. affinis) | Toxicity Data: Toxic at (concentration) (Artemia salina) | Toxicity Data: Toxic at (concentration) (T. isochrysis galbana) | further results |
| --- | --- | --- | --- | --- |
| CC1(S(=O)(=O)[O-])CC(=O)c2ccccc2C1=O.[Na+] (stereo not shown) [compound 3, 2-methyl-2-sodium metabisulfite-1,4-naphthalenedione] | 5 ppm < 15 min | Toxic at 5 ppm | Toxic at 500 ppb | Toxicity Data: toxic concentration (Oyster larvae): 500 ppb; Toxicity Data: Kills & hatch prevention @ (concentration) (Fish eggs): prevention @ 1 ppm; Toxicity Data: Toxic at (concentration) (Zebra mussel larvae; Zebra mussel larvae): Toxic at 1 ppm |
| O=C1c2ccccc2C(=O)c2c(Cl)cccc21 [compound 8, 1-chloroanthraquinone] | 5 ppm < 5 hours |  | Toxic at 500 ppb | Toxicity Data: Toxic at (concentration) (Neochloris): Toxic at 500 ppb |
| Cc1cc(O)c2c(c1)C(=O)c1cccc(O)c1C2=O [compound 6, 3-methyl-1,8-dihydroxyanthraquinone] |  |  | Toxic at 1 ppm | Toxicity Data: Toxic at (concentration) (Zebra mussel larvae; Zebra mussel larvae): Toxic at 1 ppm |
| Cc1ccc2c(c1)C(=O)c1ccccc1C2=O [compound 9, 2-methyl-anthraquinone] | 5 ppm < 45 min | Toxic at 5 ppm | Toxic at 500 ppb | Toxicity Data: Toxic at (concentration) (Zebra mussel larvae; Zebra mussel larvae): Toxic at 200 ppm; Toxicity Data: Toxic at (concentration) (Neochloris): Toxic 1 ppm |
| CC1=CC(=O)c2ccccc2C1=O [compound 2, 2-methyl-1,4-naphthalenedione (Vitamin K3)] | 5 ppm < 15 min | Toxic at 5 ppm | Toxic at 500 ppb | Toxicity Data: toxic concentration (Oyster larvae): 1 ppm; Toxicity Data: Kills & hatch prevention @ (concentration) (Fish eggs): prevention @ 1 ppm; Toxicity Data: Toxic at (concentration) (Zebra mussel larvae; Zebra mussel larvae): Toxic at 500 ppm |
| O=C1C=CC(=O)C=C1 [compound 12, 1,4-benzoquinone] |  |  | Toxic at 500 ppb | Toxicity Data: Control hatch at (concentration) (Fish eggs): at 1 ppm |
| CC1=CC(=O)C=CC1=O [compound 13, methyl-1,4-benzoquinone (toluquinone)] |  |  | Toxic at 500 ppb |  |
| COC1=C(OC)C(=O)C(C)=CC1=O [compound 14, 2,3-methoxy-5-methyl-1,4-benzoquinone] |  |  | Toxic at 5 ppm | Avoidance of treated leaves ([1]; after 48 hours): avoidance behavior was again observed; Avoidance of treated leaves ([1]; all treatments, 24 hours): significant avoidance relative to control; Feeding activity ([1]; several snails of the treatment group, leaves completely intact): no feeding activity at all |
| O=C1C=CC(=O)c2ccccc21 [compound 10, 1,4-naphthalenedione] | 5 ppm < 10 min |  | Toxic at 1 ppm | Toxicity Data: toxic concentration (Oyster larvae): Toxic at 5 ppm |
| O=C1c2ccccc2Cc2ccccc21 [compound 4, Anthrone] |  |  | Toxic at 2 ppm |  |
| CC1=CC(=O)c2c(O)cccc2C1=O [compound 1, 2-methyl-5-hydroxy-1,4-napthoquinone] | 5 ppm < 10 min | Toxic at 5 ppm | Toxic at 50 ppb | Toxicity Data: Kills & hatch prevention @ (concentration) (Fish eggs): prevention @ 1 ppm; Toxicity Data: Toxic at (concentration) (Zebra mussel larvae; Zebra larvae): Toxic at 200 ppb; Toxicity Data: Toxic at (concentration) (Minnow larvae): Toxic at 1 ppm; Toxicity Data: Toxic at (concentration) (Neochloris): Toxic at 500 ppm |
| O=C1c2ccccc2C(=O)c2ccccc21 [compound 11, anthraquinone] | 5 ppm < 4 hours |  |  |  |
| O=C(O)c1ccc2c(c1)C(=O)c1ccccc1C2=O [compound 7, anthraquinone-2-carboxylic acid] | 5 ppm < 5 hours |  | Toxic at 1 ppm |  |
| O=C1c2ccccc2C(=O)c2c1ccc(O)c2O [compound 5, 1,2-dihydroxyanthraquinone] |  | Toxic at 5 ppm | Toxic at 1 ppm | Toxicity Data: Toxic at (concentration) (E. affinis): Toxic at 1 ppm |
